IC50, EC50 and AC50 data for 10 molecules are collected here from ChEMBL document CHEMBL1201862, “PubChem BioAssay data set” (2004).

The source made the active and inactive calls. Bounds are passed on as bounds.

A short description of experiment [1]: ADAM10 inhibitors, peptide cleavage, dose response, biochemical, QFRET (AID 743254).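 Further: ADAM10 enzyme with the DM2 quenched FRET peptide as substrate; EDANS fluorescence gain as the protease cuts the substrate; inhibitor potency against ADAM10 proteolytic activity.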
The target of experiment [2] is T1, Disintegrin and metalloproteinase domain-containing protein 17 (Homo sapiens, UniProt P78536). The experiment can be described thus: ADAM17 protease inhibitors, dose response, counter-screen for ADAM10 exosite inhibitor project, biochemical, quenched FRET substrate (AID 743253). Background: A counterscreen serves to expose hits that act by an unwanted route or on another target.

Another experiment concerns the target Major prion protein (Homo sapiens, UniProt P04156). The format is functional, cell-based.
Experiment [3] is described as follows: cells.
In experiment [4] the target is T1, Disintegrin and metalloproteinase domain-containing protein 17. Kind of experiment: exosite inhibitors of ADAM17, dose response, biochemical (AID 743260).
The nature of experiment [5]: ADAM10 protease inhibitors, dose response, selectivity assay for ADAM17 exosite inhibitor project, biochemical, FRET peptide substrate, recombinant human ADAM10 (AID 743259).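 Further: ADAM10 enzyme cleaving a FRET peptide substrate.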
In experiment [6] the target is T2, Oxysterols receptor LXR-beta (Homo sapiens, UniProt P55055).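 Further: agonist activity at LXR measured by a cell-based luminescence readout across a dose range, run as a counterscreen for daf-12 agonists; HEK293 cells with Gal4-LXR fusion and GAL4-driven luciferase reporter; potency for activation of Gal4-LXR reporter so compounds are agonists.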
T2 sequence (P55055 whole entry): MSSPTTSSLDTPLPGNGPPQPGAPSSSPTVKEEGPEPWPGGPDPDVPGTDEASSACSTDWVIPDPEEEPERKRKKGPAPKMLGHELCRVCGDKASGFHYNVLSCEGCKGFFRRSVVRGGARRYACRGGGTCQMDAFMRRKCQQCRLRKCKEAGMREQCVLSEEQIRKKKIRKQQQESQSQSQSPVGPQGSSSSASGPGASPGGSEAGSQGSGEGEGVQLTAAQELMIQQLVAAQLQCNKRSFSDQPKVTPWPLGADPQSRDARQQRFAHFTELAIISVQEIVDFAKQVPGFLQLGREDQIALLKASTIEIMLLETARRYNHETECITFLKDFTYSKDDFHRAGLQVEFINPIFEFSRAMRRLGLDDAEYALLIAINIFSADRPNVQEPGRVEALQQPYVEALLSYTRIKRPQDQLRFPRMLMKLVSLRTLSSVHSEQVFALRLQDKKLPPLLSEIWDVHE
In kind it is functional, cell-based.

Experiment [7] is described as follows: NIH-3T3 fibroblast cytotoxicity, dose response, cytotoxicity control, cell-based, fluorescence, Alamar Blue, secondary assay (AID 2327).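 Further: NIH-3T3 mouse fibroblasts cultured with fluconazole at 8 µg/mL.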 The format is functional.
A short description of experiment [8]: C. albicans growth with fluconazole, confirmation, fluorescence, retest (AID 2467). The format is functional, cell-based.
In experiment [9] the target is Heat shock protein HSP 90-alpha (Homo sapiens, UniProt P07900). The format is functional, organism-based.
A short description of experiment [10]: A549 cell cytotoxicity, dose response, cytotoxicity control, cherry-picks, 26 µM top dose (AID 1053119). In kind it is functional, cell-based.
The target of another experiment is Caspase-6 (Homo sapiens, UniProt P55212). The experiment can be described thus: human caspase-6 inhibitors, dose response, biochemical, VEID-R110 fluorescence, cherry-pick (AID 720632).
Another experiment addresses Caspase-7 (Homo sapiens, UniProt P55210). Kind of experiment: human caspase-7 inhibitors, dose response, selectivity assay for caspase-6 inhibitor project, biochemical, DEVD-R110 fluorescence, cherry-pick (AID 743295). In kind it is […].
The target in the next experiment is Caspase-8 (Homo sapiens, UniProt Q14790). The experiment can be described thus: caspase-8 inhibition counter-screen, dose response, selectivity assay for caspase-6 inhibitor project, biochemical, Z-IETD-R110 fluorescence, cherry-picked samples (AID 743294).
Experiment [11] is described as follows: HepG2 cell cytotoxicity, dose response, cytotoxicity control, ATP luminescence, cherry-pick, activator set 2 (AID 1053143). The format is functional, cell-based.
The subject of experiment [12] is HEK293. The experiment can be described thus: NOD1 signaling inhibitors, primary screen, cell-based, luminescence, uHTS (AID 1578). The format is functional. The settings on record: Homo sapiens.
The test system of experiment [13] is HEK293. The experiment can be described thus: cells. In kind it is functional, cell-based. The settings on record: Homo sapiens.
Experiment [14] concerns HEK293. The experiment can be described thus: cells. The format is functional, cell-based. The following applies: Homo sapiens. This is another data set of the same source.
In experiment [15] the test system is HEK293. Kind of experiment: NOD2 signaling inhibitors in MDP-stimulated cells, cell-based, uHTS, luminescence (AID 2001). In kind it is functional. The settings on record: Homo sapiens.
The nature of experiment [16]: inhibitors of intracellular T. cruzi replication, confirmation, NIH3T3 host cells, beta-gal luminescence (AID 2044).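 Further: intracellular parasites grown in NIH/3T3 mouse fibroblasts as host cells; luminescent beta-galactosidase reporter signal from transgenic T. cruzi replicating inside host cells; inhibitors lower the luminescence signal.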 The format is functional, cell-based.
Experiment [17] deals with HEK293. The experiment can be described thus: cells. The settings on record: Homo sapiens. In kind it is functional, cell-based. This is another data set of the same source.
Experiment [18] can be described thus: cytotoxicity toward NIH3T3 fibroblasts, dose response, counter-screen, cell-based, ATP luminescence, mouse fibroblasts (AID 2010).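 Further: cells exposed to compound for about 90 hours before reading.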 In kind it is functional.
Experiment [19] can be described thus: human group III sPLA2 inhibitors, dose response, biochemical, QFRET, IC50 (AID 743457).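 Further: green fluorescence rise as the enzyme cleaves BODIPY PC-A2 in liposomes; potency for inhibition of the enzyme.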
The subject of experiment [20] is HEK293. The experiment can be described thus: cells. The settings on record: Homo sapiens.
Experiment [21] in a line: Shn3 3'UTR reporter inhibitors, dose response, cell-based, Clone20 osteoblasts, firefly luciferase, cherry-picked (AID 624132).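 Further: firefly luciferase luminescence from reporter carrying the Shn3 3'UTR in osteoblasts.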 In kind it is functional.
The nature of experiment [22]: HepG2 cell cytotoxicity, dose response, cytotoxicity control for Shn3 inhibitor project, CellTiter-Glo, cherry-picked (AID 624134). In kind it is functional, cell-based. Background: ATP-based viability assays read luminescence as a measure of living cells.
Experiment [23] is described as follows: control 3'UTR Renilla luciferase suppression, dose response, counter-screen for Shn3 inhibitor project, cell-based, Clone20-Shn3RL, cherry-picked (AID 624133). In kind it is functional.
Experiment [24] in a line: reduction of Shn3 3'UTR firefly luciferase signal, dose response, Schnurri-3 inhibitor project, cell-based, Clone20 osteoblasts, cherry-pick, set 2 (AID 720490).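 Further: actives lower the luminescence signal as inhibitors.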 In kind it is functional.
The nature of experiment [25]: cells. The source holds these as a separate data set.

Consider `Cc1cc(C)cc(NS(=O)(=O)c2ccc(NC(=S)NC(=O)c3ccc(Br)o3)cc2)c1`, for which the IC50 (commonly the concentration at which inhibition is half-maximal) in [1] was 11.7 µM (inactive); in [2], > 69.5 µM (inactive).
As to `CCOC(=O)CSc1nc(C(C)(C)C)nc2ccccc12`, the IC50 was 6.98 µM (active) on Major prion protein and > 138 µM (inactive) in the experiment “cells [3]”.
Consider `COc1ccc(N(C)S(=O)(=O)c2cccc(C(=O)OC(C(=O)Nc3cc(C)cc(C)c3)c3ccccc3)c2)cc1` (centres undefined), for which the IC50 in [4] and in experiment [5] was > 69.5 µM (inactive) each time.
Consider `COCCNc1nc(-c2cc3ccccc3o2)cs1`, for which the EC50 (in general, the midpoint of the concentration-response curve) in experiment [6] is > 67.5 µM (inactive).
With `Cc1ccc(O)c(-c2cc(-c3cccc(Br)c3)[nH]n2)c1`, the EC50 was 16.3 µM (active) in experiment [7] and 4.48 µM (active) in experiment [8]. Besides, the AC50 (usually the concentration at which the activity in the assay is half-maximal) is 3.01 µM (active) in [9] and 37.3 µM (active) in experiment [10].
Take `CCCCN(C(=O)c1cccc(-n2cccc2)c1)c1c(N)n(Cc2ccccc2)c(=O)[nH]c1=O`: the AC50 on Caspase-6 is 4.26 µM (active); on Caspase-7, > 22 µM (inactive); on Caspase-8 it was 46.1 µM (active).
As for `CCC(=O)Nc1cc2nn(-c3ccccc3)nc2cc1Cl`, the AC50 in experiment [11] was 5.02 µM (active).
Consider `Fc1ccc(NC(S)=Nc2nccs2)cc1`, for which the EC50 was 5.3 µM (active) in the experiment on HEK293 [12], 2.79 µM (active) in experiment [16] and > 60 µM (inconclusive) in experiment [18]. In addition, the IC50 in the experiment with HEK293 [13] was > 20 µM (inactive); with HEK293 [14], > 20 µM (inactive); with HEK293 [15], 6.34 µM (inactive); with HEK293 [17] it was > 20 µM (inactive); in experiment [19], > 122 µM (inactive); in the experiment with HEK293 [20] it was > 20 µM (inactive).
Turning to `O=C(Nc1ccc(N2CCOCC2)cc1)c1ccc(Cl)c(S(=O)(=O)N2CCCC2)c1`, the AC50 in experiment [21] was 2.17 µM (active); in experiment [22], 69.4 µM (active); in experiment [23], 22.3 µM (active); in experiment [24], 2.65 µM (active).
As for `CCCN1CCc2c(sc(NC(=O)C3CCN(S(=O)(=O)c4cccs4)CC3)c2C(N)=O)C1`, in the experiment “cells [25]”, the AC50 is 5.17 µM (active).
